Source: ChEMBL document CHEMBL4354833, “Kinetic Target-Guided Synthesis: Reaching the Age of Maturity” (J Med Chem, 2020)
≈ marks a conversion by molar mass, not a printed value. Blank lines part the entries; values can stand above or below the molecule they belong to.

Assays:
[1] = biological target: T1, NAD kinase 1 (Listeria monocytogenes serovar 1/2a (strain ATCC BAA-679 / EGD-e), UniProt Q8Y8D7); assay: Inhibition of Listeria monocytogenes NAD kinase assessed as suppression of reduced NADP formation by yeast glucose-6-phosphate dehydrogenase coupled assay
T1 sequence (Q8Y8D7 whole entry): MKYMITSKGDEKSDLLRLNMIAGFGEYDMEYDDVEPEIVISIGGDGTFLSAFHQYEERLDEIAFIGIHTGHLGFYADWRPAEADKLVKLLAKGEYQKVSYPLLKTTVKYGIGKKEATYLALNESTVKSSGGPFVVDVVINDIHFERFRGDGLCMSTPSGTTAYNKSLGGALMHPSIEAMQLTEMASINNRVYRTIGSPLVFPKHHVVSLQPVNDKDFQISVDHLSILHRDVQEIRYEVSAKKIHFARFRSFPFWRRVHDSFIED

[2] = Inhibition of Enterovirus A71 3c protease
[3] = biological target: T2, Signal transducer and activator of transcription 5B (Homo sapiens, UniProt P51692); assay: Binding affinity to MBP-tagged recombinant STAT5b-SH2 domain (unknown origin) using carboxyfluoresceine-labeled phosphotyrosine octapeptide incubated for 12 hrs by fluorescence polarization assay
T2 sequence (P51692 whole entry): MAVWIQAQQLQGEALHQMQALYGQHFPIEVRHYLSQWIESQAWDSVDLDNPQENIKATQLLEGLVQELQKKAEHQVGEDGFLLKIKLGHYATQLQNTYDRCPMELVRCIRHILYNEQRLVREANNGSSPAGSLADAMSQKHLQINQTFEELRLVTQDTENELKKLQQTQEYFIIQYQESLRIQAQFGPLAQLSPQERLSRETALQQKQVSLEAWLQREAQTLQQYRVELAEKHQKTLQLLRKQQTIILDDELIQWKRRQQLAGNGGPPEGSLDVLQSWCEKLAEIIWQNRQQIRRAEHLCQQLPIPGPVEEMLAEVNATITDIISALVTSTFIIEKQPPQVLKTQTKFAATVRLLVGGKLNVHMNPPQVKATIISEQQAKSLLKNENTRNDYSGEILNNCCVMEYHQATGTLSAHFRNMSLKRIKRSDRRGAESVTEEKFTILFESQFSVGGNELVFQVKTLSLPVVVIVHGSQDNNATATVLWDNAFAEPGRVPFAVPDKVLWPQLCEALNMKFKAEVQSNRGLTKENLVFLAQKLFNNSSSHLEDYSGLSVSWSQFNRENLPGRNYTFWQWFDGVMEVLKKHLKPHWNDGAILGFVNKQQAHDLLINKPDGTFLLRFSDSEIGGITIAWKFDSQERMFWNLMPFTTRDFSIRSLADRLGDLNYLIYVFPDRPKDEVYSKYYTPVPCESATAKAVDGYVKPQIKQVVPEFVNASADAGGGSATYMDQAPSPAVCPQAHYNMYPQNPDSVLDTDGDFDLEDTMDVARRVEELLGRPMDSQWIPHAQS

[4] = biological target: T3, Signal transducer and activator of transcription 5B (Mus musculus) (UniProt P42232); assay: Inhibition of STAT5b phosphorylation in mouse BaF3/FLT3-ITD cells at 25 uM after 6 hrs by Western blot analysis relative to control; assay type: cell-based
T3 sequence (whole entry): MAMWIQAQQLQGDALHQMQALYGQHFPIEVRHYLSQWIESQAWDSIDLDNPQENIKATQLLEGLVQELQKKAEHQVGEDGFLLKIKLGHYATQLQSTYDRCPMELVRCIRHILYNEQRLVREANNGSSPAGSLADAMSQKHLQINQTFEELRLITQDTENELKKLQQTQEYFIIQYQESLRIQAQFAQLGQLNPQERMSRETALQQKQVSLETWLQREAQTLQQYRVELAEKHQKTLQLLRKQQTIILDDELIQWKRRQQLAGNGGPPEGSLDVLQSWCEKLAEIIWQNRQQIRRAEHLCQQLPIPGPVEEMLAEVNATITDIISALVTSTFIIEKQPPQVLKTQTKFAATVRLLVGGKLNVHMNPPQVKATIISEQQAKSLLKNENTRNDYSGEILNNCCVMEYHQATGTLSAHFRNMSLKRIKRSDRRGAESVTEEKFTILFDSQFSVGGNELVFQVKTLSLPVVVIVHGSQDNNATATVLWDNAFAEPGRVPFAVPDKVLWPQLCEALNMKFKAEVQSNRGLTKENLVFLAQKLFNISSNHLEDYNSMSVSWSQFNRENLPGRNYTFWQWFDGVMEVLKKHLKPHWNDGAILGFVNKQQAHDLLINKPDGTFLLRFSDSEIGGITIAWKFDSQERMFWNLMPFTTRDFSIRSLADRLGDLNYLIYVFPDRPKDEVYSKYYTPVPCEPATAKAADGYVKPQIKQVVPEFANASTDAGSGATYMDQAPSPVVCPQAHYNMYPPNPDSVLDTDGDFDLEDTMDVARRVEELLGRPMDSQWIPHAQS

[5] = Antitumor activity against mouse BaF3/FLT3-ITD cells implanted in NSG mouse assessed as induction of tumor growth regression at 200 mg/kg, sc QD for 14 days relative to control; assay type: functional
[6] = biological target: Bacterial 70S ribosome; assay: Binding affinity to Escherichia coli 70S ribosome assessed as reduction in BODIPY-Erythromycin A binding incubated for 1 hr by fluorescence polarization assay; assay type: subcellular
[7] = biological target: Bacterial 70S ribosome (Bacteria) (UniProt P0A7V0+P60723+P0AG67+P0A7R5+P0A7R9+P0A7S3+P0A7S9+P0AG59+P0ADZ4+P0A7T3+P0AG63+P0A7T7+P0A7U3+P0A7U7+P68679+P0A7V3+P0A7V8+P0A7W1+P02358+P02359+P0A7W7+P0A7X3+P0A7J3+P0A7J7+P0AA10+P0ADY3+P02413+P0ADY7+P0AG44+P0C018+P0A7K6+P0A7L0+P0A7L3+P0AG48+P61175+P0ADZ0+P60624+P68919+P0A7L8+P0A7M2+P0A7M6+P60422+P0AG51+P0A7N1+P0A7M9+P0A7N4+P0A7N9+P0A7P5+P0A7Q1+Q2EEQ2+P0A7Q6+P60438+P62399+P0AG55+P0A7K2); assay: Inhibition of 70S ribosome in Escherichia coli cell free system assessed as reduction in protein synthesis by measuring EmGFP synthesis at 1 uM by cell-free translation inhibition method relative to control; assay type: subcellular
[8] = test system: Streptococcus pneumoniae; assay: Antimicrobial activity against Streptococcus pneumoniae ATCC 49619; assay type: functional
[9] = biological target: Coagulation factor X (Homo sapiens, UniProt P00742); assay: Inhibition human FA10a using Boc-LeuGly-Arg-AMC fluorogenic substrate
Chain of Coagulation factor X (P00742 41-179 limits assumed): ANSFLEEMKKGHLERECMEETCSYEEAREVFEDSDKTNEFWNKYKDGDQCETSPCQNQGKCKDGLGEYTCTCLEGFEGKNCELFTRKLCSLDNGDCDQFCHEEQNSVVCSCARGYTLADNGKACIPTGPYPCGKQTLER
Chain of Coagulation factor X (P00742 235-488 limits assumed): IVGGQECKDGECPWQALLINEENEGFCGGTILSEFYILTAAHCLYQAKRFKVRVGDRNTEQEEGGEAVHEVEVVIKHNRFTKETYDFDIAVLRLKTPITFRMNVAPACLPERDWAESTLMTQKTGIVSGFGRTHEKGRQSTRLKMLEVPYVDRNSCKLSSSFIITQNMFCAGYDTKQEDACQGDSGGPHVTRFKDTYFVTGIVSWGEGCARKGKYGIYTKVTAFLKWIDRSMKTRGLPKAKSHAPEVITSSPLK

[10] = biological target: T4, Bifunctional ligase/repressor BirA (Staphylococcus aureus, UniProt A0A0E7NXW5); assay: Binding affinity to Staphylococcus aureus biotin protein ligase
T4 sequence (A0A0E7NXW5 whole entry): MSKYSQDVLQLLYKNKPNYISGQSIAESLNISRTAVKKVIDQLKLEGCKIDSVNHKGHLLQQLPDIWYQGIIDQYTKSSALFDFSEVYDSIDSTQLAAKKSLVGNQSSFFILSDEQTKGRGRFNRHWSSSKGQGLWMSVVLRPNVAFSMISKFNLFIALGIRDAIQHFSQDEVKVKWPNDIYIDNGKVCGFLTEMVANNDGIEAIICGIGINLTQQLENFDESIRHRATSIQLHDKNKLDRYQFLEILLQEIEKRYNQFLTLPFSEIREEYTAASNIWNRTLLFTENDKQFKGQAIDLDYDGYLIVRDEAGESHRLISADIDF

[11] = biological target: T5, Signal transducer and activator of transcription 5B (Homo sapiens) (UniProt P51692); assay: Binding affinity to MBP-tagged recombinant STAT5b-SH2 domain (unknown origin) assessed as change in melting temperature by CETSA method
T5 sequence (whole entry): T2 sequence (P51692 whole entry)

[12] = biological target: T3, Signal transducer and activator of transcription 5B (Mus musculus); assay: Inhibition of STAT5b in mouse BaF3/FLT3-ITD cells incubated for 6 hrs by CETSA-ITDRF assay; assay type: cell-based
[13] = biological target: Luciferin 4-monooxygenase (Photinus pyralis, UniProt P08659); assay: Inhibition of Photinus pyralis luciferase using ATP and D-luciferin in presence of Coenzyme A and DL-cysteine by luminescence based assay
Chain of Luciferin 4-monooxygenase (P08659 whole entry): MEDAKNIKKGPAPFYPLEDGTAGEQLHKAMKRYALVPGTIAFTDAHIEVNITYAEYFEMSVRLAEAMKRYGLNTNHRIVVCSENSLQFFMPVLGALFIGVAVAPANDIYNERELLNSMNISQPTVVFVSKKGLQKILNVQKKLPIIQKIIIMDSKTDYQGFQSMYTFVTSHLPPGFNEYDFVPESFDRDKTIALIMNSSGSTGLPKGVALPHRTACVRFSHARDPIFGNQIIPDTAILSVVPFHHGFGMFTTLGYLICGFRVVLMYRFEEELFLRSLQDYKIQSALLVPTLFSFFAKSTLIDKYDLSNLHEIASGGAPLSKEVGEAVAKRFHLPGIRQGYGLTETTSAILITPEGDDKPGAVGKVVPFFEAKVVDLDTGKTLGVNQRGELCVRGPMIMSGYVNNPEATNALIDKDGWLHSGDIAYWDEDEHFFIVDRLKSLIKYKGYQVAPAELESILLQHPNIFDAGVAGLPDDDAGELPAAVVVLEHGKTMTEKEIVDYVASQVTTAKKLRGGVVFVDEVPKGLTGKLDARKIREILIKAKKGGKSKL

[14] = species: Rattus norvegicus; assay: animal or person; conditions: 3 h
Description: Antiinflammatory activity in rat model of carrageenan-induced paw edema model after 3 hrs

Structure (SMILES): CC[C@H]1OC(=O)[C@@](C)(F)C(=O)[C@H](C)[C@@H](O[C@@H]2O[C@H](C)C[C@H](N(C)C)[C@H]2O)[C@](C)(OC)C[C@@H](C)C(=O)[C@H](C)[C@H]2N(CCCCn3cc(-c4cccc(N)c4)nn3)C(=O)O[C@]12C [SOLITHROMYCIN]
Kd [6]: 0.0006 µM
inhibition [7]: 47%
MIC [8]: 6 ng/mL (≈ 7.1 nM)

Structure (SMILES): N=C(N)c1ccc(CN)cc1
Ki [9]: 680 µM

Structure (SMILES): CC[C@H]1OC(=O)[C@@](C)(F)C(=O)[C@H](C)[C@@H](O[C@@H]2O[C@H](C)C[C@H](N(C)C)[C@H]2O)[C@](C)(OC)C[C@@H](C)C(=O)[C@H](C)[C@H]2N(CCCCN=[N+]=[N-])C(=O)O[C@]12C
Kd [6]: 0.0021 µM
MIC [8]: 2 ng/mL (≈ 2.75 nM)

Structure (SMILES): O=C(O)c1nonc1NCn1ccnn1
Ki [3]: > 5000 µM

Structure (SMILES): COC(=O)c1nonc1NCn1cnnn1
IC50 [3]: 37 µM

Structure (SMILES): O=C(O)c1nonc1NCn1cnnn1
IC50 [3]: 1.4 µM
ΔTm [11]: 8 °C
Occ50 [12]: 28 µM

Structure (SMILES): Cc1cc(-n2cc(-c3ccc(N)cc3)nn2)n(-c2ccc(S(C)(=O)=O)cc2)n1
ED50 [14]: 0.12 mg/kg

The next lines start with results.

Ki [1]: 25 µM
Structure (SMILES): [N-]=[N+]=NC[C@H]1O[C@@H](n2c(SCC(=O)NC[C@H]3O[C@@H](n4cnc5c(N)ncnc54)[C@H](O)[C@@H]3O)nc3c(N)ncnc32)[C@H](O)[C@@H]1O

IC50 [2]: 1.43 µM
Structure (SMILES): CCOC(=O)CC[C@H](C[C@@H]1CCCNC1=O)NC(=O)[C@H](Cc1ccccc1)NC(=O)C(O)CC(=O)c1ccncc1 (some centres not stated)

IC50 [3]: 2.9 µM
inhibition [4]: > 50%
Structure (SMILES): O=C(O)c1nonc1NCn1nnnc1Cc1ccccc1
Activity [5]: 28%

Ki [10]: 1.4 µM
Structure (SMILES): O=C1N[C@H]2[C@H](CS[C@H]2CCCCc2cn(CCCNc3ccc([N+](=O)[O-])c4nonc34)nn2)N1

Ki [3]: > 5000 µM
Structure (SMILES): O=C(O)c1nonc1NCn1nnc2ccccc21

IC50 [13]: 0.01 µM
Structure (SMILES): Nc1ncnc2c1ncn2[C@H]1O[C@@H](COP(=O)(O)OC(=O)c2cccc(-c3noc(-c4ccccc4F)n3)c2)[C@H](O)[C@@H]1O

Ki [3]: > 5000 µM
Structure (SMILES): O=C(O)c1nonc1NCn1nnnc1-c1ccccc1

IC50 [2]: 0.32 µM
Structure (SMILES): Cc1cc(C(=O)N[C@@H](Cc2ccc(F)cc2)C(=O)N[C@H](C=O)C[C@@H]2CCCNC2=O)no1
